{"source": "patent US11452686B2", "about": "“Cosmetic active substance obtained through bioconversion by Lactobacillus arizonensis of its original substrate, method for obtaining same composition comprising same, and uses” (SOCIETE INDUSTRIELLE LIMOUSINE D'APPLICATION BIOLOGIQUE, priority 2019, dated 2022)", "type_in_all_cases": "cell-based", "key": {"[1]": {"tested_on": "filaggrin", "assay": "Filaggrin synthesis by immunostaining on normal human keratinocytes subjected to a dry environment", "experimental": "Thus, the use of an active substance according to the invention makes it possible to restore the epidermal differentiation process in order to obtain a cohesive structure. The second study on the keratinocytes makes it possible to compare the effect of the products of the various examples 1 to 5. To do this, their capacity to restore the synthesis of filaggrin by human keratinocytes subjected to a dry environment is compared. This study was carried out by immunocytology on normal human keratinocytes subjected to a dry environment. The procedure is as follows:\nNormal human keratinocytes are seeded and incubated at 37° C. in an atmosphere containing 5% CO2 for several days.\nThen, the keratinocytes are either incubated at 37° C. under 5% CO2 in an environment of 40% relative humidity in order to mimic a dry environment, or they are kept in an environment that is saturated with humidity (82% relative humidity) in the presence or absence of the products of examples 1 to 5 or in the presence of a sodium lactate solution at 45 g/L (pH 5.4).\nAfter 24 h, immunostaining is performed using an anti-filaggrin primary antibody and a coupled secondary antibody, Alexa Flor® 488.\nThe nuclei are stained with a DAPI solution.\nViewing is performed using an IX 70 microscope (Olympus) coupled to an image analysis system (NIS-Elements software, Nikon).\nThe synthesized filaggrin is proportional to the intensity of green fluorescence present on the keratinocytes. A quantitative analysis of the images was performed using Matlab® software. The results are expressed in arbitrary units (AU) in Table 6 (Effect of the various examples on their ability to restore the synthesis of filaggrin in human keratinocytes subjected to water stress)."}, "[2]": {"tested_on": "Collagen I", "assay": "Collagen I mRNA expression by quantitative PCR on normal human fibroblasts", "conditions": "10 ng/mL (positive control)", "experimental": "(§1) This study was carried out by PCR on normal human fibroblasts.\n(§2) I. Culturing and Treatment of Fibroblasts: • Normal human fibroblasts are inoculated into a culture medium and then incubated at 37° C. in an atmosphere containing 5% CO2. • Then, the fibroblasts are cultured in the presence or absence of the active substance of example 1 at 0.5% and 1% (V/V).\n(§3) TGF-β at 10 ng/mL is used as a positive control. Finally, the fibroblasts are recovered and the total RNAs extracted.\n(§4) The RNAs were reverse-transcribed, and the complementary DNAs obtained were analyzed by the quantitative PCR technique. The mRNAs of the RPS18 protein, internal reference control, were analyzed in parallel with the mRNAs of Coll I, Coll III, Coll IV, Coll VII and HAS-2.\n(§5) The quantification of the incorporation of fluorescence (SYBR Green) is measured continuously using a thermal cycler. The RQ (relative quantification) analysis is performed using software."}, "[3]": {"tested_on": "Collagen III", "assay": "Collagen III mRNA expression by quantitative PCR on normal human fibroblasts", "conditions": "10 ng/mL (positive control)", "experimental": "as §1, §2, §3, §4, §5"}, "[4]": {"tested_on": "Collagen IV", "assay": "Collagen IV mRNA expression by quantitative PCR on normal human fibroblasts", "conditions": "10 ng/mL (positive control)", "experimental": "as §1, §2, §3, §4, §5"}, "[5]": {"tested_on": "Collagen VII", "assay": "Collagen VII mRNA expression by quantitative PCR on normal human fibroblasts", "conditions": "10 ng/mL (positive control)", "experimental": "as §1, §2, §3, §4, §5"}, "[6]": {"tested_on": "HAS-2 (hyaluronan synthase 2)", "assay": "HAS-2 mRNA expression by quantitative PCR on normal human fibroblasts", "conditions": "10 ng/mL (positive control)", "experimental": "as §1, §2, §3, §4, §5"}}, "data": [{"molecule": "CC(O)C(=O)[O-].[Na+]", "note": "(stereo not drawn) [Sodium lactate]", "values": [{"measurement": "Restoration of filaggrin synthesis (in words)", "setting": "[1]; human keratinocytes subjected to water stress", "result": "does not restore filaggrin synthesis"}, {"measurement": "Synthesis of filaggrin", "setting": "[1]; keratinocytes, water stress (40% relative humidity), 24 h, product at 0.5%", "result": 909, "unit": "AU"}, {"measurement": "Ability to restore filaggrin synthesis", "setting": "[1]; keratinocytes, water stress, product at 0.5%", "result": 7, "unit": "%"}]}, {"molecule": "TGF-β", "values": [{"measurement": "Collagen I Efficacy/control", "setting": "[2]", "result": "+126%"}, {"measurement": "Collagen I Expression", "setting": "[2]", "result": 226, "unit": "%"}, {"measurement": "Collagen III Efficacy/control", "setting": "[3]", "result": "+39%"}, {"measurement": "Collagen III Expression", "setting": "[3]", "result": 139, "unit": "%"}, {"measurement": "Collagen IV Efficacy/control", "setting": "[4]", "result": "+218%"}, {"measurement": "Collagen IV Expression", "setting": "[4]", "result": 318, "unit": "%"}, {"measurement": "Collagen VII Efficacy/control", "setting": "[5]", "result": "+234%"}, {"measurement": "Collagen VII Expression", "setting": "[5]", "result": 334, "unit": "%"}, {"measurement": "HAS-2 Expression", "setting": "[6]", "result": 78, "unit": "%"}]}]}
